Data from ChEMBL document CHEMBL5291721, “A preclinical secondary pharmacology resource illuminates target-adverse drug reaction associations of marketed drugs” (Nat Commun, 2023).

Key:
[1] = target: T1, Type-1 angiotensin II receptor (Homo sapiens, UniProt P30556)
T1 sequence (P30556 whole entry): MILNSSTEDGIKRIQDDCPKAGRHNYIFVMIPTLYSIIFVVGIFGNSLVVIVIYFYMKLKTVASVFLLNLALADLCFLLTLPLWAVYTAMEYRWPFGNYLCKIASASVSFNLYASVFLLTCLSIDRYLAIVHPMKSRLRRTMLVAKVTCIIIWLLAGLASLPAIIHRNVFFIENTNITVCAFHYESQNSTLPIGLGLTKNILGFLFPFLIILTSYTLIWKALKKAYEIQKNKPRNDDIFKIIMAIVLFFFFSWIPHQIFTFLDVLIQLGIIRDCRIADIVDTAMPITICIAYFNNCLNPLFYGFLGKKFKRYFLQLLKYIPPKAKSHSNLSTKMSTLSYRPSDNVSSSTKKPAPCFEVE

[2] = target: Growth hormone secretagogue receptor type 1 (Homo sapiens, UniProt Q92847)
Vasopressin V1a receptor = Vasopressin V1a receptor (Homo sapiens, UniProt P37288)
Adenosine receptor A2a = Adenosine receptor A2a (Homo sapiens, UniProt P29274)
[3] = target: T2, Alpha-2A adrenergic receptor (Homo sapiens, UniProt P08913); format: functional, cell-based
T2 sequence (P08913 whole entry): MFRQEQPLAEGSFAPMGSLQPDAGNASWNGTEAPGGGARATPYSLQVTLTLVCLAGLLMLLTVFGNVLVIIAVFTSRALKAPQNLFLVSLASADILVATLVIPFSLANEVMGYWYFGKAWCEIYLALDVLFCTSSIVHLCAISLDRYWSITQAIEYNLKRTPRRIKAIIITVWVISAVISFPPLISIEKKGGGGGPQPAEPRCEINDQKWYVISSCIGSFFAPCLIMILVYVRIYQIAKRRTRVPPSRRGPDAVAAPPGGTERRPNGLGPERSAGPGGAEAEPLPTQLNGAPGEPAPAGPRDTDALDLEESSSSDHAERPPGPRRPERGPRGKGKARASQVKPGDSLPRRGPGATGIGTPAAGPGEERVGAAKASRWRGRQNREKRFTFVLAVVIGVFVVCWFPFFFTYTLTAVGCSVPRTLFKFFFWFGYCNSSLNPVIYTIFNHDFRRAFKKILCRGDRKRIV

[4] = target: T3, Cholecystokinin receptor type A (Homo sapiens, UniProt P32238)
T3 sequence (P32238 whole entry): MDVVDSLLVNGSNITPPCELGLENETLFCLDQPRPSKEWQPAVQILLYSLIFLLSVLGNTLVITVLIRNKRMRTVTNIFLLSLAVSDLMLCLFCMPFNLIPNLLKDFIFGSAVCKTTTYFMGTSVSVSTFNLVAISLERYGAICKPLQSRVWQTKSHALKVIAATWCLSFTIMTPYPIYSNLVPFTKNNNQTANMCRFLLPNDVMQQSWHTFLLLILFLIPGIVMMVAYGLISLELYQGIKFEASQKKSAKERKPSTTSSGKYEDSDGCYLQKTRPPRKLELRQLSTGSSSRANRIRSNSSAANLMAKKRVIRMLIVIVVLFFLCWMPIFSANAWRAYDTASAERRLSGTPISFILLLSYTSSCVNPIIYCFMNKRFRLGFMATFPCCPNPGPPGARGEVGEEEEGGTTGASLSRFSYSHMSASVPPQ

D(3) dopamine receptor = D(3) dopamine receptor (Homo sapiens, UniProt P35462)
[5] = target: cGMP-inhibited 3',5'-cyclic phosphodiesterase 3A (Homo sapiens, UniProt Q14432); format: functional
Note: assay procedure not described here.

D(3) dopamine receptor, sequence (P35462 whole entry): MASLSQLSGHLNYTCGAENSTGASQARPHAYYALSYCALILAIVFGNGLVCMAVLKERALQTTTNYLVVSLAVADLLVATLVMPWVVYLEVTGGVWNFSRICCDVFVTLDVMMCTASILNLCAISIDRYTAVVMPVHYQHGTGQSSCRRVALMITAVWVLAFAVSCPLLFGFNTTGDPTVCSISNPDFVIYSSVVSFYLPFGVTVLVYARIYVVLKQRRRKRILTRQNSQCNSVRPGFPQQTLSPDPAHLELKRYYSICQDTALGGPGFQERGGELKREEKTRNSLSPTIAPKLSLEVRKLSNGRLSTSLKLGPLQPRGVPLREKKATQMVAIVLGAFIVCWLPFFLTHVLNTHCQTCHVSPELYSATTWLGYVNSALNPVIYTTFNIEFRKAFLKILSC
Growth hormone secretagogue receptor type 1, sequence (Q92847 whole entry): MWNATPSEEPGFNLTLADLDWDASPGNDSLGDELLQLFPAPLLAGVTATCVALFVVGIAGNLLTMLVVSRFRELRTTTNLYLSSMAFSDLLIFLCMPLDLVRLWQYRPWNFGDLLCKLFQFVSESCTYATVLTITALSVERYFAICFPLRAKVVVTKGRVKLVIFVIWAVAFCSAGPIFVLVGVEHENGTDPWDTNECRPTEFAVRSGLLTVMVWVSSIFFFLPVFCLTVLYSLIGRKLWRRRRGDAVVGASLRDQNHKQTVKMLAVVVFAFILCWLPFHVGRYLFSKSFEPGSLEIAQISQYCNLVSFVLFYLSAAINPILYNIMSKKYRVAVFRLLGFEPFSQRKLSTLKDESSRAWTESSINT
Vasopressin V1a receptor, sequence (P37288 whole entry): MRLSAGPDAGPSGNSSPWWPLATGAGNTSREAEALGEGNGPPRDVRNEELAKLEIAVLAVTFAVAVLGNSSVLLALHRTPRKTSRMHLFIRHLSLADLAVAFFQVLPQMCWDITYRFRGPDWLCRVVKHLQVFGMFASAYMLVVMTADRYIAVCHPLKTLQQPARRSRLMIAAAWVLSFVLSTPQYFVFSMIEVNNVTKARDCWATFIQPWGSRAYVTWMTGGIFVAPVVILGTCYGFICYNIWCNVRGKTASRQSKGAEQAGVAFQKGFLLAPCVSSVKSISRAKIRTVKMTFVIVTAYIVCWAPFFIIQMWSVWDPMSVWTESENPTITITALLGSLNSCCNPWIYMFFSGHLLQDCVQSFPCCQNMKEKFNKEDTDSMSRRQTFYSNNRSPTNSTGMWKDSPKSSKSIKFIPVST
cGMP-inhibited 3',5'-cyclic phosphodiesterase 3A, sequence (Q14432 whole entry): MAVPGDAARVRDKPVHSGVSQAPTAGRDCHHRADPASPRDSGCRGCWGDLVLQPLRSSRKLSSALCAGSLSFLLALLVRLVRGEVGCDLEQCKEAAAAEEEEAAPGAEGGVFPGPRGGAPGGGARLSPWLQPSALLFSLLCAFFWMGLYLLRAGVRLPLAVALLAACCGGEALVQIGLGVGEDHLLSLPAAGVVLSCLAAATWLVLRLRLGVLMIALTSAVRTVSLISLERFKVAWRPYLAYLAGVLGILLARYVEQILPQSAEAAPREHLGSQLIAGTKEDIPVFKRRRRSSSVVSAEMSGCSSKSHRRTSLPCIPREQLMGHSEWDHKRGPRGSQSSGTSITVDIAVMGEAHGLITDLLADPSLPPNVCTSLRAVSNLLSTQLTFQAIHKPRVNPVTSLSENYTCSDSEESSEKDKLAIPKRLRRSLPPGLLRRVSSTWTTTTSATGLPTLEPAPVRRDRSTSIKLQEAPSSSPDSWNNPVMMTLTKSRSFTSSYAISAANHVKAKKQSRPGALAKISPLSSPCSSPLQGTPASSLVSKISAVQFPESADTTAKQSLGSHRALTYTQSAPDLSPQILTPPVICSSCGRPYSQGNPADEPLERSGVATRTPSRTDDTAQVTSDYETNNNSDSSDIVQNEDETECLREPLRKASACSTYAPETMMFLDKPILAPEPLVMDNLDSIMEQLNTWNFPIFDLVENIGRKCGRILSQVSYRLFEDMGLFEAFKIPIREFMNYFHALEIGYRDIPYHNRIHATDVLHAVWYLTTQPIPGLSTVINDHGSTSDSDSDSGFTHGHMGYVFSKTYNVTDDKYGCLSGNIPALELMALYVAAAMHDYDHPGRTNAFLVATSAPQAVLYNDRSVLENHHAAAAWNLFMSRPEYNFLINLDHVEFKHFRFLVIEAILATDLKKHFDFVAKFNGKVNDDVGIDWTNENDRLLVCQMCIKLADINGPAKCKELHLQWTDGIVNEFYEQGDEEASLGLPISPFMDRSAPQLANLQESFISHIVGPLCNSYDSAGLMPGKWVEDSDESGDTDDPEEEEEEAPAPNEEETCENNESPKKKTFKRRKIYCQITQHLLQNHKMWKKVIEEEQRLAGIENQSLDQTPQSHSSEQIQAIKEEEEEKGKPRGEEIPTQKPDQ
Adenosine receptor A2a, sequence (P29274 whole entry): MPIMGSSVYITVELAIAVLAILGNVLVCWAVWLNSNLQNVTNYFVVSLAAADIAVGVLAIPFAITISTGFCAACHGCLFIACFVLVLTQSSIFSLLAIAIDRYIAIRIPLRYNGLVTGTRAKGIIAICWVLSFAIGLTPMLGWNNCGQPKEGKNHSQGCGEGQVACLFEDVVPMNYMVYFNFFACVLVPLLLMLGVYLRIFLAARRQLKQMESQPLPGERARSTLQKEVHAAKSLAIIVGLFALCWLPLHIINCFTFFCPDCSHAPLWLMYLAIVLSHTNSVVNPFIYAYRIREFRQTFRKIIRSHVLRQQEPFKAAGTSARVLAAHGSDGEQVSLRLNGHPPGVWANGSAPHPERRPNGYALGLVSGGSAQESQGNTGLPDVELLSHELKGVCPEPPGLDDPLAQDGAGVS

Compound | AC50 [1] [µM] | AC50 [2] [µM] | AC50 (Vasopressin V1a receptor) [µM] | AC50 (Adenosine receptor A2a) [µM] | AC50 [3] [µM] | AC50 [4] [µM] | AC50 (D(3) dopamine receptor) [µM] | AC50 [5] [µM]
O=C1CN2Cc3c(ccc(Cl)c3Cl)N=C2N1 [ANAGRELIDE] | > 30 | > 30 | > 30 | > 30 | > 10 | > 30 | > 30 | 
CO/N=C(\C(=O)N[C@@H]1C(=O)N2C(C(=O)O)=C(COC(N)=O)CS[C@H]12)c1ccco1 [CEFUROXIME] | > 30 | > 30 | > 30 | > 30 | > 30 | > 30 | > 30 | > 30
Clc1cccc(Cl)c1N=C1NCCN1 [CLONIDINE] | > 30 | > 30 | > 10 | > 30 |  | > 30 | > 10 | > 30
CN1C[C@H](C(=O)N[C@]2(C)O[C@@]3(O)[C@@H]4CCCN4C(=O)[C@H](Cc4ccccc4)N3C2=O)C[C@@H]2c3cccc4[nH]cc(c34)C[C@H]21 [DIHYDROERGOTAMINE] |  | 4.39 | > 30 | > 30 |  | > 30 | 0.055 | > 30
CNCC[C@H](Oc1cccc2ccccc12)c1cccs1 [DULOXETINE] | > 30 | 14.7 | > 30 | > 30 | > 10 | > 30 | 4.6 | > 30
CCC(=O)O[C@@H](O[P@](=O)(CCCCc1ccccc1)CC(=O)N1C[C@H](C2CCCCC2)C[C@H]1C(=O)O)C(C)C [FOSINOPRIL] |  |  |  |  | > 30 |  | > 30 | > 30
Cc1cnc(NC(=O)C2=C(O)c3ccccc3S(=O)(=O)N2C)s1 [MELOXICAM] | > 30 | > 30 | > 10 | > 30 | > 10 | > 30 | > 10 | > 10
COc1ccnc(C[S+]([O-])c2nc3ccc(OC(F)F)cc3[nH]2)c1OC (stereo not drawn) [PANTOPRAZOLE] | > 30 | > 30 | > 10 | > 30 | > 10 | > 30 | > 10 | > 30
CNC[C@H](O)c1cccc(O)c1 [PHENYLEPHRINE] | > 30 | > 30 | > 10 | > 30 |  | > 30 | 4.1 | > 30
CC(=O)S[C@@H]1CC2=CC(=O)CC[C@]2(C)[C@H]2CC[C@@]3(C)[C@@H](CC[C@@]34CCC(=O)O4)[C@H]12 [SPIRONOLACTONE] | > 30 | > 30 | > 30 | > 30 | > 30 | > 30 | > 30 | > 30
CN1CCN(CCCN2c3ccccc3Sc3ccc(S(=O)(=O)N(C)C)cc32)CC1 [THIOPROPERAZINE] |  |  |  |  | > 30 |  | 0.031 | > 30
